In PMC12013712, “The protein kinases KIPK and KIPK-LIKE1 suppress overbending during negative hypocotyl gravitropic growth in Arabidopsis” (The Plant Cell, 2025):

What was measured:
KIPK = target: T1, KIPK (Arabidopsis thaliana, UniProt Q9LFA2); assay: in vitro phosphorylation of GST-PIN3CL, autoradiography; type: biochemical; settings: MBP fusion; 100 µM ATP with [γ-32P]ATP, labelled compound; 5 mM MgCl2, pH 7.5, 30 °C, 1 h
T1 construct: gene KIPK1; GST fusion (PIP strips) or MBP fusion (phosphorylation), tags kept, from E. coli Rosetta (DE3)
T1 sequence (Q9LFA2 1-934): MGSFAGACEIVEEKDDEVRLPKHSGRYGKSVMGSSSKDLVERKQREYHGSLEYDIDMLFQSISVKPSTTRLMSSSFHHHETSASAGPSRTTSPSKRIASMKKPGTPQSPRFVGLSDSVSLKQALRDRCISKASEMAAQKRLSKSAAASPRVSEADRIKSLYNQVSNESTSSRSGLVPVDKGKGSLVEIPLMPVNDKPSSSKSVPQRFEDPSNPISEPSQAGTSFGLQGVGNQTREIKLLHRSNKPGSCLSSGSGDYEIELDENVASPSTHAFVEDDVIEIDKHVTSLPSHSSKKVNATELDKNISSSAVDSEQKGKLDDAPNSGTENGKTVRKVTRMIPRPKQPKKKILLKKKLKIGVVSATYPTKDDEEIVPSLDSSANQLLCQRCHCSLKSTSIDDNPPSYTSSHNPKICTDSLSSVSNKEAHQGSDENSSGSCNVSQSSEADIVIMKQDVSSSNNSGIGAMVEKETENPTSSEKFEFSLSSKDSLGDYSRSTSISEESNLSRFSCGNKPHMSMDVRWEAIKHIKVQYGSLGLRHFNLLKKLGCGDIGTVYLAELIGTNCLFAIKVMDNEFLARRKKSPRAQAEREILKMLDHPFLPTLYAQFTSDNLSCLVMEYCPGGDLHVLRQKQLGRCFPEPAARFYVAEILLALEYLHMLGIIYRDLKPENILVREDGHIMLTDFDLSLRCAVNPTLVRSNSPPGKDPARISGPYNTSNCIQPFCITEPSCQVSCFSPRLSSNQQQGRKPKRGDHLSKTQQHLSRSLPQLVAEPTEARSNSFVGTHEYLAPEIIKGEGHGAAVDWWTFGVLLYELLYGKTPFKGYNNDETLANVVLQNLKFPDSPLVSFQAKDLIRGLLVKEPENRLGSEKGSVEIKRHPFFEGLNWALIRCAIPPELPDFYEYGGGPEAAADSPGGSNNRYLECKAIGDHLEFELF

KIPKL1 = target: T2, KIPKL1 (Arabidopsis thaliana, UniProt Q9SJM3); assay: as above; type: biochemical; settings: MBP fusion; 100 µM ATP with [γ-32P]ATP, labelled compound; 5 mM MgCl2, pH 7.5, 30 °C, 1 h
T2 construct: gene KIPK2; GST fusion (PIP strips) or MBP fusion (phosphorylation), tags kept, from E. coli Rosetta (DE3)
T2 sequence (Q9SJM3 1-949): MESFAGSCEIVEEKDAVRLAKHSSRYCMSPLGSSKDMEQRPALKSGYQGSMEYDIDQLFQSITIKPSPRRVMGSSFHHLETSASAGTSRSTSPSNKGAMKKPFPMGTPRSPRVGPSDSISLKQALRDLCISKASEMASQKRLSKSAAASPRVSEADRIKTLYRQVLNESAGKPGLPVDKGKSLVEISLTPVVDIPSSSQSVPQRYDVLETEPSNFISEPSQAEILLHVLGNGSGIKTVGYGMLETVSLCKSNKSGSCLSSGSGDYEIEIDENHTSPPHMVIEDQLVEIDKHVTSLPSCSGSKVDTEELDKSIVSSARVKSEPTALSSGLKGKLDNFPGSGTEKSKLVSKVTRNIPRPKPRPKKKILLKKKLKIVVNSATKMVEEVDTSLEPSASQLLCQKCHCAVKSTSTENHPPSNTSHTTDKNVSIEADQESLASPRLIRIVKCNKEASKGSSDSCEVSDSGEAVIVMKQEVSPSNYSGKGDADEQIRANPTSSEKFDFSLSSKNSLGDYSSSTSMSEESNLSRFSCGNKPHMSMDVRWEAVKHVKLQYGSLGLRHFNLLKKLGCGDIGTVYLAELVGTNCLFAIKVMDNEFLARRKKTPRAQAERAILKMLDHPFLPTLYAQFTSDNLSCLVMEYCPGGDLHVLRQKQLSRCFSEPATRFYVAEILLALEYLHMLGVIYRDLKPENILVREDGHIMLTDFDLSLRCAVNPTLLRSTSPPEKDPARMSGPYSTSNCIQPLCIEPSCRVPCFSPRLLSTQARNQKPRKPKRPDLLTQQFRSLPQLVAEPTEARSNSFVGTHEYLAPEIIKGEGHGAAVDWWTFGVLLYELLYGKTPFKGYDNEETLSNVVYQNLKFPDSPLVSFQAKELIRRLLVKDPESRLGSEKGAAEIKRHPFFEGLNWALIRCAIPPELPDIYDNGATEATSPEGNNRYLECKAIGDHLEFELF

KIPKL2 = target: T3, KIPKL2 (Arabidopsis thaliana, UniProt Q9LZS4); assay: as above; type: biochemical; settings: MBP fusion; 100 µM ATP with [γ-32P]ATP, labelled compound; 5 mM MgCl2, pH 7.5, 30 °C, 1 h
T3 construct: gene AGC1-8; GST fusion (PIP strips) or MBP fusion (phosphorylation), tags kept, from E. coli Rosetta (DE3)
T3 sequence (Q9LZS4 1-926): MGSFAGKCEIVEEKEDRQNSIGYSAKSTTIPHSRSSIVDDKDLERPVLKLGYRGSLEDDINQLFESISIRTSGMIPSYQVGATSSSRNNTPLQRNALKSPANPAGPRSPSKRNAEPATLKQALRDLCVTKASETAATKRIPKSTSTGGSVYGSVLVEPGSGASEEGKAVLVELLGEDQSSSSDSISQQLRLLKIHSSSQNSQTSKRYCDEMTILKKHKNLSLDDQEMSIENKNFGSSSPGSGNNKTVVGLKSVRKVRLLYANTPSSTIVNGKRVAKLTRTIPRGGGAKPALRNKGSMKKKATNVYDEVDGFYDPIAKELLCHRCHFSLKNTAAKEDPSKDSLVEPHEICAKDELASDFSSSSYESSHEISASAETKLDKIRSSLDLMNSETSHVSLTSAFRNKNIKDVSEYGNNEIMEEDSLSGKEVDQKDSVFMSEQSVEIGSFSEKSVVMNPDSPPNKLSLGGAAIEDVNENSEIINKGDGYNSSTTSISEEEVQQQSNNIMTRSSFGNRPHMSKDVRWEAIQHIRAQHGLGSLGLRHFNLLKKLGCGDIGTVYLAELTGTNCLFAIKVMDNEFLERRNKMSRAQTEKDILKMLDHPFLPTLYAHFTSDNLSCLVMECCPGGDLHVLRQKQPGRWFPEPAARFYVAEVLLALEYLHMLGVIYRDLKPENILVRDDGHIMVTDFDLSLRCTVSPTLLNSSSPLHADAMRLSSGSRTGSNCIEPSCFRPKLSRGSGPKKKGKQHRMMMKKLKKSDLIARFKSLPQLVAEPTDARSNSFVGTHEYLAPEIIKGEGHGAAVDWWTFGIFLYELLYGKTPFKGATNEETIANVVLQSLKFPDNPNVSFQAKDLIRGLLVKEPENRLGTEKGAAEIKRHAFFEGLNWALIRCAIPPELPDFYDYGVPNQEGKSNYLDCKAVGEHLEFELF

PIN3 = target: T4, PIN3 (Arabidopsis thaliana, UniProt Q9S7Z8); assay: [3H]-IAA efflux from Xenopus oocytes; type: cell-based; settings: co-expressed with KIPK or KIPKL1; about 1 µM internal [3H]-IAA, labelled compound; outside pH 7.4, 21 °C
T4 sequence (Q9S7Z8 1-640): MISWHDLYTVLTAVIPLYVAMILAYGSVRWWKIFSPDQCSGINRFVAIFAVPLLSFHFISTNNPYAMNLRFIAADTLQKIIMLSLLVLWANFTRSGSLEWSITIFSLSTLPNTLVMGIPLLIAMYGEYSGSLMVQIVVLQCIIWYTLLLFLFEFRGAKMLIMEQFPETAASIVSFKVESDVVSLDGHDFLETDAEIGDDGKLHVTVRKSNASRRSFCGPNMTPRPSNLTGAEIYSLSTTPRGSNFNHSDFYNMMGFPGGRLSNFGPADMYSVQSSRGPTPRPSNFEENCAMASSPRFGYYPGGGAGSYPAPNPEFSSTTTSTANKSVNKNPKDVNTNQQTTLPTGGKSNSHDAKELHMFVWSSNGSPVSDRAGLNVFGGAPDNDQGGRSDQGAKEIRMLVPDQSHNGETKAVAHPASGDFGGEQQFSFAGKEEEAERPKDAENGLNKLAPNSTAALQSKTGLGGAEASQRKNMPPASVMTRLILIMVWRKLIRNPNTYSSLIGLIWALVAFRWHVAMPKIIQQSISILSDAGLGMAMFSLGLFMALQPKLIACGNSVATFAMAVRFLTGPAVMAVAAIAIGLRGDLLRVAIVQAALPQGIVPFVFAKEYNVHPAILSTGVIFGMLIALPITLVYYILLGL

Row | SMILES | in vitro phosphorylation of GST-PIN3CL, autoradiography (KIPK) | in vitro phosphorylation of GST-PIN3CL, autoradiography (KIPKL1) | in vitro phosphorylation of GST-PIN3CL, autoradiography (KIPKL2) | [3H]-IAA efflux from Xenopus oocytes (PIN3)
1 | Nc1ncnc2c1ncn2[C@@H]1O[C@H](COP(=O)(O)OP(=O)(O)OP(=O)(O)O)[C@@H](O)[C@H]1O [ATP] | MBP-KIPK and MBP-KIPKL1 phosphorylated the GST- (glutathione-S-transferase-) tagged PIN3 cytoplasmic loop | MBP-KIPK and MBP-KIPKL1 phosphorylated the GST- (glutathione-S-transferase-) tagged PIN3 cytoplasmic loop | GST-PIN3CL phosphorylation by MBP-KIPKL2 was reproducibly comparatively less efficient | 
2 | O=C(O)Cc1c[nH]c2ccccc12 [IAA] |  |  |  | PIN3-mediated auxin efflux was activated when PIN3 was co-expressed with KIPK or KIPKL1
